Data published in BindingDB's records for doi:10.1016/j.chembiol.2009.02.013 (Pfizer, 2009).

Biological target: T1, Fatty-acid amide hydrolase 1 [30-579] (Rattus norvegicus, UniProt P97612)
T1 construct: 30-579
T1 sequence (P97612 whole entry): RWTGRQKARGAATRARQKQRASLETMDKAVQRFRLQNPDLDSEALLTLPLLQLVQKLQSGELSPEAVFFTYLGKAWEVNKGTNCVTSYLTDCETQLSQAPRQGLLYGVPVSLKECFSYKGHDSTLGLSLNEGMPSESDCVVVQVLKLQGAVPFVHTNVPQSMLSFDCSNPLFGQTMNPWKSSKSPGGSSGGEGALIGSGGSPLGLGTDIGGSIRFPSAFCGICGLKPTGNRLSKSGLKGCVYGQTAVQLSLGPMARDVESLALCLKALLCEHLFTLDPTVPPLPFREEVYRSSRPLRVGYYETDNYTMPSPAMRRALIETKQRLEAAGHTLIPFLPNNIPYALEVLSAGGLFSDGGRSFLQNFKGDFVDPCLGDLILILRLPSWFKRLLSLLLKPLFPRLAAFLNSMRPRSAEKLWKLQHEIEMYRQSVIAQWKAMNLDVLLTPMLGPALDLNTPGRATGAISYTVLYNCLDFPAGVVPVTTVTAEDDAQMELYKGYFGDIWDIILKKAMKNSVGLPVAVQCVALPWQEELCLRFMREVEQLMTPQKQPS
Test: Enzyme-coupled Assay
Text: Enzyme-coupled assay using oleamide as substrate where stoichiometic quantites of NAD are formed upon the generation of ammonia from oleamide by FAAH hydrolysis.

Work on `O=C(Nc1cccnc1)N1CCC(Cc2cccc(Oc3ccc(C(F)(F)F)cn3)c2)CC1` [PF-3845, 10] yielded a Ki of 230 nM.
